Activity calls are given as the source filed them. No cut-off for these calls is given here.
Key:
Rattus norvegicus [1] = assay: Inhibition of rat passive cutaneous anaphylaxis following p.o. administration.; details: po
Rattus norvegicus [2] = assay: Inhibition of rat passive cutaneous anaphylaxis following i.p. administration.; assay type: functional; details: ip
Rattus norvegicus [3] = assay: Inhibition of rat passive cutaneous anaphylaxis following p.o. administration; Not active.

| SMILES | ED50 (Rattus norvegicus [1]) [mg/kg] | ED50 (Rattus norvegicus [2]) [mg/kg] | ED50 (Rattus norvegicus [3]) |
| --- | --- | --- | --- |
| CN(C)c1cccc(NC(=O)c2nnn[n-]2)c1C(N)=O.[Na+] | 34 | 0.9 | – |
| O=C(Nc1cccc(NC(=O)c2nnn[n-]2)n1)c1nnn[n-]1.[Na+].[Na+] | 0.1 | 0.02 | – |
| O=C(Nc1cc(Cl)cc(NC(=O)c2nnn[n-]2)n1)c1nnn[n-]1.[Na+].[Na+] | 2 | 0.2 | – |
| NC(=O)c1c(NC(=O)c2nnn[n-]2)cccc1N1CCCCC1.[Na+] | 46 | 0.8 | – |
| CN1CCN(c2cccc(NC(=O)c3nn[nH]n3)c2C(N)=O)CC1 | 2.3 | 0.01 | – |
| O=C([O-])c1cc(=O)c2c(OCC(O)COc3cccc4oc(C(=O)[O-])cc(=O)c34)cccc2o1.[Na+].[Na+] [CROMOLYN SODIUM] | – | 8 | inactive |
| O=C(Nc1cc(C(F)(F)F)cc(NC(=O)c2nnn[n-]2)c1Cl)c1nnn[n-]1.[Na+].[Na+] | – | 1.6 | – |
| N#Cc1c(NC(=O)c2nnn[n-]2)cccc1N1CCCCC1.[Na+] | 7 | 0.4 | – |
| CN1CCN(c2cccc(NC(=O)c3nn[nH]n3)c2C#N)CC1 | 0.2 | 0.02 | – |
| N#Cc1c(NC(=O)c2nn[nH]n2)cccc1N1CCOCC1 | 10 | 0.5 | – |
| NC(=O)c1c(NC(=O)c2nnn[n-]2)cccc1N1CCOCC1.[Na+] | – | 0.2 | – |
| COc1cccc(NC(=O)c2nn[nH]n2)c1C(N)=O | 0.2 | 0.1 | – |
| CCNc1cccc(NC(=O)c2nnn[n-]2)c1C#N.[Na+] | 2.6 | 1.1 | – |
| N#Cc1ccccc1NC(=O)c1nnn[n-]1.[Na+] | 10 | 0.5 | – |
| NC(=O)c1cc(NC(=O)c2nnn[n-]2)cc(NC(=O)c2nnn[n-]2)c1.[Na+].[Na+] | > 10 | 0.02 | – |
| CCOC(=O)C(=O)Nc1cc(C#N)cc(NC(=O)c2nn[nH]n2)c1 | – | 0.2 | – |
| O=C(Nc1ccccn1)c1nnn[n-]1.[Na+] | 0.68 | 0.31 | – |
| N#Cc1cc(NC(=O)c2nnn[n-]2)c(Cl)c(NC(=O)c2nnn[n-]2)c1.[Na+].[Na+] | – | 0.3 | – |
| CN(C)c1cccc(NC(=O)c2nnn[n-]2)c1C#N.[Na+] | 1.7 | 2 | – |
| N#Cc1cc(NC(=O)c2nnn[n-]2)cc(NC(=O)c2nnn[n-]2)c1.[Na+].[Na+] | 1 | 0.04 | – |

Source: ChEMBL document CHEMBL1121892, “5-Tetrazolecarboxamides and their salts: new orally active antiallergy agents” (1981)
